From patent US9499550B2 (BRISTOL-MYERS SQUIBB COMPANY, priority 2012, dated 2016)
pEC50: −log10 of the molar value. Where two headings read alike, the source gives them in different places.

Assays:
[1] = test system: HCV genotype 1a (H77 strain) replicon in HUH-7 cells; experiment: HCV replicon luciferase reporter assay, genotype 1a; type: cell-based; conditions: Hepatitis C virus, Huh-7, 72 h, HCV genotype 1a replicon luciferase, 3 days incubation, read-out: LE_1a (EC50, range)
Outline: (§1)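 Replicon inhibition for both genotypes was measured as Renilla luciferase signal (EnduRen, 7.5 μM final, 2 h) after 3-day, 37° C exposure of replicon-bearing HUH-7 cells in 4% FCS DMEM, 0.5% DMSO. The 1b construct carries S1179I; the 1a H77 construct carries P1496L and S2204I. Twenty-point, 3-fold dilutions were fitted four-parametrically for EC50, and CC50 was taken from multiplexed Cell Titer-Blue.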

[2] = test system: HCV genotype 1b (Con1) replicon in HUH-7 cells; experiment: HCV replicon luciferase reporter assay, genotype 1b; type: cell-based; conditions: Hepatitis C virus, Huh-7, 72 h, HCV genotype 1b replicon luciferase, 3 days incubation, read-out: LE_1b (EC50, range)
Outline: as §1

With `COc1cc2ccnc(O[C@@H]3C[C@H]4C(=O)N[C@]5(C(=O)NS(=O)(=O)C6(F)CC6)C[C@H]5/C=C\CC[C@@H](C)C[C@@H](C)[C@H](NC(=O)OC(C)(C)C)C(=O)N4C3)c2cc1Cl` [Compound 4024, tert-butyl (2R,6S,7R,9R,13aS,14aR,16aS,Z)-2-(7-chloro-6-methoxyisoquinolin-1-yloxy)-14a-(1-fluorocyclopropylsulfonylcarbamoyl)-7,9-dimethyl-5,16-dioxo-1,2,3,5,6,7,8,9,10,11,13a,14,14a,15,16,16a-hexadecahydrocyclopropa[e]pyrrolo[1,2-a][1,4]diazacyclopentadecin-6-ylcarbamate] the pEC50 [1] was > 8.26 and the pEC50 [2] was > 8.26.
In the case of `CCOc1cnc(O[C@@H]2C[C@H]3C(=O)N[C@]4(C(=O)NS(=O)(=O)C5CC5)C[C@H]4/C=C\CC[C@@H](C)C[C@@H](C)[C@H](NC(=O)OC(C)(C)C(F)(F)F)C(=O)N3C2)c2cccc(Cl)c12` [Compound 4025], the pEC50 [1] was > 8.26 and the pEC50 [2] was > 8.26.
In the case of `COc1ccc2c(O[C@@H]3C[C@H]4C(=O)N[C@]5(C(=O)NS(=O)(=O)C6CC6)C[C@H]5/C=C\CC[C@@H](C)C[C@@H](C)[C@H](NC(=O)OC(C)(C)C)C(=O)N4C3)nc(-c3ccc(OC(C)C)cc3)cc2c1` [Compound 4026, tert-butyl (2R,6S,7R,9R,13aS,14aR,16aS,Z)-14a-(cyclopropylsulfonylcarbamoyl)-2-(3-(4-isopropoxyphenyl)-6-methoxyisoquinolin-1-yloxy)-7,9-dimethyl-5,16-dioxo-1,2,3,5,6,7,8,9,10,11,13a,14,14a,15,16,16a-hexadecahydrocyclopropa[e]pyrrolo[1,2-a][1,4]diazacyclopentadecin-6-ylcarbamate], the pEC50 [1] was > 8.26 and the pEC50 [2] was > 8.26.
In the case of `COc1ccc2c(O[C@@H]3C[C@H]4C(=O)N[C@]5(C(=O)NS(=O)(=O)C6CC6)C[C@H]5/C=C\CC[C@@H](C)C[C@@H](C)[C@H](NC(=O)OC(C)(C)C(F)(F)F)C(=O)N4C3)nc(-c3ccc(OC(C)C)cc3)cc2c1` [Compound 4027], the pEC50 ([1]; GETYPE1A) was > 8.26 and the pEC50 ([2]; GETYPE1B) was > 8.26.
`COc1ccc2c(O[C@@H]3C[C@H]4C(=O)N[C@]5(C(=O)NS(=O)(=O)C6(F)CC6)C[C@H]5/C=C\CC[C@@H](C)C[C@@H](C)[C@H](NC(=O)OC(C)(C)C(F)(F)F)C(=O)N4C3)ncc(Cl)c2c1` [Compound 4028] was tested, and the pEC50 ([1]; GETYPE1A) was > 8.26 and the pEC50 ([2]; GETYPE1B) was > 8.26.
For `COc1ccc2c(O[C@@H]3C[C@H]4C(=O)N[C@]5(C(=O)NS(=O)(=O)C6(F)CC6)C[C@H]5/C=C\CC[C@@H](C)C[C@@H](C)[C@H](NC(=O)c5ccccc5F)C(=O)N4C3)nccc2c1` [Compound 4029], the pEC50 [1] was > 8.26 and the pEC50 [2] was > 8.26.
In the case of `C[C@@H]1CC/C=C\[C@@H]2C[C@@]2(C(=O)NS(=O)(=O)C2CC2)NC(=O)[C@@H]2C[C@@H](Oc3ncc(OCC4CC4)c4ccccc34)CN2C(=O)[C@@H](NC(=O)CC(C)(C)C(F)(F)F)[C@H](C)C1` [Compound 4030], the pEC50 [1] was > 8.26 and the pEC50 [2] was > 8.26.
In the case of `C[C@@H]1CC/C=C\[C@@H]2C[C@@]2(C(=O)NS(=O)(=O)C2CC2)NC(=O)[C@@H]2C[C@@H](Oc3ncc(OC(F)F)c4c(Cl)cccc34)CN2C(=O)[C@@H](NC(=O)CC(C)(C)C(F)(F)F)[C@H](C)C1` [Compound 4031], the pEC50 [1] was > 8.26 and the pEC50 [2] was > 8.26.
In the case of `COc1ccc2c(O[C@@H]3C[C@H]4C(=O)N[C@]5(C(=O)NS(=O)(=O)C6CC6)C[C@H]5/C=C\CC[C@@H](C)C[C@@H](C)[C@H](NC(=O)OC(C)(C)C)C(=O)N4C3)ncnc2c1` [Compound 4032, tert-butyl (2R,6S,7R,9R,13aS,14aR,16aS,Z)-14a-(cyclopropylsulfonylcarbamoyl)-2-(7-methoxyquinazolin-4-yloxy)-7,9-dimethyl-5,16-dioxo-1,2,3,5,6,7,8,9,10,11,13a,14,14a,15,16,16a-hexadecahydrocyclopropa[e]pyrrolo[1,2-a][1,4]diazacyclopentadecin-6-ylcarbamate], the pEC50 [1] was > 8.26 and the pEC50 [2] was > 8.26.
With `COc1ccc2c(O[C@@H]3C[C@H]4C(=O)N[C@]5(C(=O)NS(=O)(=O)C6CC6)C[C@H]5/C=C\CC[C@H](C)C[C@@H](C)[C@H](NC(=O)OC(C)(C)C)C(=O)N4C3)ncnc2c1` [Compound 4033, tert-butyl (2R,6S,7R,9S,13aS,14aR,16aS,Z)-14a-(cyclopropylsulfonylcarbamoyl)-2-(7-methoxyquinazolin-4-yloxy)-7,9-dimethyl-5,16-dioxo-1,2,3,5,6,7,8,9,10,11,13a,14,14a,15,16,16a-hexadecahydrocyclopropa[e]pyrrolo[1,2-a][1,4]diazacyclopentadecin-6-ylcarbamate] the pEC50 [1] was > 8.26 and the pEC50 [2] was > 8.26.
For `COc1ccc2c(O[C@@H]3C[C@H]4C(=O)N[C@]5(C(=O)NS(=O)(=O)C6CC6)C[C@H]5/C=C\CC[C@@H](C)C[C@@H](C)[C@H](NC(=O)OC(C)(C)C(F)(F)F)C(=O)N4C3)ncnc2c1` [Compound 4034], the pEC50 ([1]; GETYPE1A) was > 8.26 and the pEC50 ([2]; GETYPE1B) was > 8.26.
With `COc1ccc2c(O[C@@H]3C[C@H]4C(=O)N[C@]5(C(=O)NS(=O)(=O)C6(F)CC6)C[C@H]5/C=C\CC[C@@H](C)C[C@@H](C)[C@H](NC(=O)OCC5(C)CC5)C(=O)N4C3)nccc2c1` [Compound 4036] the pEC50 [1] was > 8.26 and the pEC50 [2] was > 8.26.
`COc1ccc2c(O[C@@H]3C[C@H]4C(=O)N[C@]5(C(=O)NS(=O)(=O)C6(F)CC6)C[C@H]5/C=C\CC[C@@H](C)C[C@@H](C)[C@H](NC(=O)OC5CCCCC5)C(=O)N4C3)nccc2c1` [Compound 4037] was tested, and the pEC50 [1] was > 8.26 and the pEC50 [2] was > 8.26.
`COc1ccc2c(O[C@@H]3C[C@H]4C(=O)N[C@]5(C(=O)NS(=O)(=O)C6(F)CC6)C[C@H]5/C=C\CC[C@@H](C)C[C@@H](C)[C@H](NC(=O)OC5C[C@@H]6C[C@@H]6C5)C(=O)N4C3)nccc2c1` (stereo partly drawn) [Compound 4038] was tested, and the pEC50 [1] was > 8.26 and the pEC50 [2] was > 8.26.
With `COc1cc2ccnc(O[C@@H]3C[C@H]4C(=O)N[C@]5(C(=O)NS(=O)(=O)C6(C)CC6)C[C@H]5/C=C\CC[C@@H](C)C[C@@H](C)[C@H](NC(=O)OC(C)(C)C(F)(F)F)C(=O)N4C3)c2cc1F` [Compound 4039, 1,1-trifluoro-2-methylpropan-2-yl(2R,6S,7R,9R,13aS,14aR,16aS,Z)-2-(7-fluoro-6-methoxyisoquinolin-1-yloxy)-7,9-dimethyl-14a-(1-methylcyclopropylsulfonylcarbamoyl)-5,16-dioxo-1,2,3,5,6,7,8,9,10,11,13a,14,14a,15,16,16a-hexadecahydrocyclopropa[e]pyrrolo[1,2-a][1,4]diazacyclopentadecin-6-ylcarbamate] the pEC50 [1] was > 8.26 and the pEC50 [2] was > 8.26.
With `C[C@@H]1CC/C=C\[C@@H]2C[C@@]2(C(=O)NS(=O)(=O)C2CC2)NC(=O)[C@@H]2C[C@@H](Oc3nccc4ccccc34)CN2C(=O)[C@@H](NC(=O)OC(C)(C)C(F)(F)F)[C@H](C)C1` [Compound 4040] the pEC50 ([1]; GETYPE1A) was > 8.26 and the pEC50 ([2]; GETYPE1B) was > 8.26.
With `CCOc1cnc(O[C@@H]2C[C@H]3C(=O)N[C@]4(C(=O)NS(=O)(=O)C5(C)CC5)C[C@H]4/C=C\CC[C@@H](C)C[C@@H](C)[C@H](NC(=O)OC(C)(C)C(F)(F)F)C(=O)N3C2)c2ccccc12` [Compound 4041] the pEC50 ([1]; GETYPE1A) was > 8.26 and the pEC50 ([2]; GETYPE1B) was > 8.26.
For `COc1cc2ccnc(O[C@@H]3C[C@H]4C(=O)N[C@]5(C(=O)NS(=O)(=O)C6(F)CC6)C[C@H]5/C=C\CC[C@@H](C)C[C@@H](C)[C@H](NC(=O)OCC(C)(C)C)C(=O)N4C3)c2cc1Cl` [Compound 4042, neopentyl (2R,6S,7R,9R,13aS,14aR,16aS,Z)-2-(7-chloro-6-methoxyisoquinolin-1-yloxy)-14a-(1-fluorocyclopropylsulfonylcarbamoyl)-7,9-dimethyl-5,16-dioxo-1,2,3,5,6,7,8,9,10,11,13a,14,14a,15,16,16a-hexadecahydrocyclopropa[e]pyrrolo[1,2-a][1,4]diazacyclopentadecin-6-ylcarbamate], the pEC50 [1] was > 8.26 and the pEC50 [2] was > 8.26.
In the case of `COc1cc2ccnc(O[C@@H]3C[C@H]4C(=O)N[C@]5(C(=O)NS(=O)(=O)C6(F)CC6)C[C@H]5/C=C\CC[C@@H](C)C[C@@H](C)[C@H](NC(=O)OC(C)(C)C(F)(F)F)C(=O)N4C3)c2cc1Cl` [Compound 4043], the pEC50 ([1]; GETYPE1A) was > 8.26 and the pEC50 ([2]; GETYPE1B) was > 8.26.
`COc1cc2ccnc(O[C@@H]3C[C@H]4C(=O)N[C@]5(C(=O)NS(=O)(=O)C6(F)CC6)C[C@H]5/C=C\CC[C@H](C)C[C@@H](C)[C@H](NC(=O)OC(C)(C)C(F)(F)F)C(=O)N4C3)c2cc1Cl` [Compound 4044] was tested, and the pEC50 ([1]; GETYPE1A) was 6.99 to 8.32 and the pEC50 ([2]; GETYPE1B) was > 8.26.
With `COc1cnc(O[C@@H]2C[C@H]3C(=O)N[C@]4(C(=O)NS(=O)(=O)C5(F)CC5)C[C@H]4/C=C\CC[C@@H](C)C[C@@H](C)[C@H](NC(=O)OC(C)(C)C)C(=O)N3C2)c2cc(F)ccc12` [Compound 4045, tert-butyl (2R,6S,7R,9R,13aS,14aR,16aS,Z)-2-(7-fluoro-4-methoxyisoquinolin-1-yloxy)-14a-(1-fluorocyclopropylsulfonylcarbamoyl)-7,9-dimethyl-5,16-dioxo-1,2,3,5,6,7,8,9,10,11,13a,14,14a,15,16,16a-hexadecahydrocyclopropa[e]pyrrolo[1,2-a][1,4]diazacyclopentadecin-6-ylcarbamate] the pEC50 [1] was > 8.26 and the pEC50 [2] was > 8.26.
